Patent US9994758B2, “Microbial metabolism of chlorine oxyanions as a control of biogenic hydrogen sulfide production” (The Regents of the University of California, priority 2011, dated 2018)

What was measured:
Desulfovibrio vulgaris = assay: Inhibition of sulfidogenesis by sulfate-reducing bacteria (D. vulgaris culture, lactate/sulfate medium); assay type: cell-based
Experimental: Twelve tubes of basal anaerobic medium containing 15 mM lactate and 15 mM sulfate were inoculated with an active culture of D. vulgaris and incubated for 6 hours at 30° C., until a visible increase in optical density was observed. After six hours, the tubes were further inoculated with A. suillum and 15 mM chlorate prior to incubation overnight at 30° C., as outlined in Table 2.

[1] = system: marine sediment slurry microcosms; assay: Sulfide inhibition in marine sediment slurry microcosms; assay type: cell-based; conditions: addition of chlorate and Dechloromarinus strain NSS, extended incubation for over 250 hours
Text: In the absence of chlorate and Dechloromarinus strain NSS sulfide is readily produced.

[O-][Cl+2]([O-])O [chlorate]
sulfide production by D. vulgaris relative to control cells incubated without chlorate (Desulfovibrio vulgaris; 15 mM chlorate alone, 24 hours, 30° C., 15 mM lactate and 15 mM sulfate): 49% | sulfide production by D. vulgaris relative to control cells incubated in the absence of A. suillum and chlorate (Desulfovibrio vulgaris; 15 mM chlorate together with A. suillum, 24-hour incubation, 30° C., 15 mM lactate and 15 mM sulfate): 17% | antimicrobial activity against D. vulgaris (Desulfovibrio vulgaris; chlorate at relatively low concentrations (15 mM)): has antimicrobial activity against D. vulgaris | time course of sulfidogenesis by D. vulgaris (FIG. 6) (Desulfovibrio vulgaris; treated with A. suillum (PS) and chlorate at 48 hours, relative to untreated control): immediate inhibition of sulfide production and removal of sulfide from the medium | sulfide production in marine sediment slurry microcosms (FIG. 4) [1]: sulfide inhibition
